Measurements taken from patent US8569229B2, “Compositions and methods which modulate G-protein signaling for the treatment of inflammatory disorders such as asthma and allergic conjunctivitis” (The Children's Hospital of Philadelphia, priority 2008, dated 2013).
Entries after “also recorded” stand apart in the source; their conditions may differ.

Key:
[1] = test system: rabbit ASM tissues; assay: Constrictor responsiveness to acetylcholine (ACh) in isolated rabbit ASM tissues, isometric tension in organ bath; conditions: for effect of pretreatment on PGE2-induced increase in constrictor responsiveness to ACh: PGE2 100 nM x 24 hr; for effect of pretreatment on salmeterol-induced increase in constrictor responsiveness to ACh: salmeterol 10 μM x 24 hr; for effect of the agent alone on constrictor responses to ACh: vehicle-exposed control tissues; for constrictor responsiveness to ACh relative to vehicle-treated controls: tissues exposed 24 hr to the agent
Text: (§1) Detection of PDE4D5 mRNA transcripts: Total RNA was extracted from the cultured ASM cells using the TRIzol method (Invitrogen), and cDNAs were isolated by RT-PCR using the SuperScript First Strand Synthesis System kit from Invitrogen, with the following oligonucleotide primer sets (Integrated DNA Technologies): for PDE4D5, 5′-[…]-3′ (forward; SEQ ID NO: 2) and 5′-[…]-3′ (reverse; SEQ ID NO: 3); and for β-actin, 5′-[…]-3′ (forward; SEQ ID NO: 4) and 5′-[…]-3′ (reverse; SEQ ID NO: 5). The reaction volume was 20 μl and cycling conditions used were 35 cycles of 30 sec denaturation at 95° C., followed by 30 sec annealing at 60° C. and elongation at 72° C. for 30 sec. Ex-Tag (Takara Biotechnology) was used as DNA polymerase. […] Following protein extraction and the addition of gel-loading buffer, the extracts were loaded on a 10% SDS-PAGE gel for immunoblotting after transfer to a PVDF membrane. The membranes were then incubated overnight with monoclonal mouse anti-human primary antibodies directed against phospho-CREB and -ATF1, phospho-ERK1/2, or α-actin, and levels were detected by ECL after a 1-hr incubation with a 1:2,000 dilution of HRP-conjugated rabbit anti-mouse secondary antibody, followed by exposure to autoradiography film. The protein band intensities were quantified by densitometry. siRNA-mediated knockdown of PKA: ASM cells were seeded into 6-well plates and, at ˜40% confluency, the medium was replaced with the reduced serum-containing medium, Opti-MEM (Invitrogen). The cells were then transfected twice during a 24-hr interval with two pools of three siRNA duplexes, each pool targeted against the human PKAα or PKAγ catalytic subunits (Santa Cruz Biotechnology; sc-36240 and sc-36236, respectively), or with a non-targeted control (scrambled) siRNA duplex, using Oligofectamine (Invitrogen) as the transfection agent. The pools of siRNAs were applied to each well at a final concentration of 100 nM for each siRNA preparation. […] Transfection of ASM cells with adeno-βARK-ct: Adenovirus (adeno)-βARK-ct, an adenovirus vector encoding the βARK1 carboxyl-terminal domain which blocks Gβγ signaling (25,26), and adeno-β-gal, an adenovirus vector expressing lacZ as a negative control, were constructed using the AdenoX adenovirus construction kit (BD-Clontech). Recombinant plaques were isolated and propagated in HEK293 cells (Invitrogen), with viral purification using the cesium chloride gradient method, and viral titer detected by plaque assay. The ASM cells were transfected with either of the adenoviral vectors at a multiplicity of infection (MOI) of 100, and experiments were conducted at 24 hr following adenoviral tranfections. Pharmacodynamic studies of constrictor and relaxation responsiveness in rabbit ASM tissues: Following initial sedation and subsequent general anesthesia with intramuscular injections of xylazine (10 mg/kg) and ketamine (50 mg/kg), respectively, rabbits were sacrificed with an intravenously administered overdose of sodium pentobarbital (100 mg/kg). As described previously (16), the tracheae were excised via open thoracotomy, the loose connective tissue and epithelium were scraped and removed, and the tracheae were divided into 8 ring segments, each of 6-8 mm in length. […] After these incubations, the tissues were placed in organ baths containing modified Krebs-Ringer solution aerated with 5% CO2 in oxygen (pH of 7.35-7.40), and attached to force transducers to continuously monitor isometric tension. […] The constrictor and relaxation dose-response curves were analyzed with respect to each tissue's maximal isometric contractile force (Tmax) to ACh and maximal relaxation response (Rmax) to isoproterenol from the initial level of active cholinergic contraction. Statistical analyses: Results are expressed as mean±SE values. Comparisons between groups were made using the Student's t-test (two-tailed) or ANOVA with Tukey's post-test analysis, where appropriate.

[2] = test system: rabbit ASM tissues; assay: Relaxation responsiveness to isoproterenol in isolated rabbit ASM tissues half-maximally contracted with ACh; conditions: for effect of pretreatment on PGE2-induced impaired relaxation to isoproterenol: PGE2 100 nM x 24 hr; for effect of pretreatment on salmeterol-induced impaired relaxation to isoproterenol: salmeterol 10 μM x 24 hr; for maximal relaxation (Rmax) response to isoproterenol: mean±SE, tissues exposed 24 hr to the agent (PGE2 100 nM; salmeterol 10 μM); for relaxation responsiveness to isoproterenol relative to vehicle-treated controls: tissues exposed 24 hr to the agent
Text: as §1

[3] = test system: human ASM cells; assay: Assay of cAMP PDE activity in ASM cell lysates; type: cell-based; conditions: for cAMP PDE (PDE4) activity relative to vehicle-treated control cells: cells exposed 24 hr to the agent; for PDE activity, fold above control: cells incubated 24 hr with the agent (PGE2 or forskolin 100 μM; salmeterol or isoproterenol 10 μM)
Procedure: Assay of cAMP PDE activity: Levels of cAMP PDE activity were assayed in ASM cell lysates using a colorimetric, non-radioactive enzymatic assay kit from Biomol, as per the manufacture's protocol. PDE activity was determined following exposure of ASM cells for 24 hr to either vehicle alone (control), PGE2 (100 μM), or forskolin (100 μM) in the absence and presence of pretreatment with rolipram (10 μM), cycloheximide (100 μM), actinomycin D (4 μM), or H89 (10 μM).
In each case, the measured levels of PDE activity were standardized to the protein content in the cell extracts.

[4] = test system: PDE4D5 mRNA; assay: Detection of PDE4D5 mRNA transcripts by RT-PCR in ASM cells; type: cell-based, human; conditions: for time of peak PDE4D5 mRNA induction / peak PDE4D5 mRNA expression, fold above unstimulated cells: salmeterol or isoproterenol 10 μM; for peak PDE4D5 mRNA expression, fold above unstimulated cells: densitometric analysis, 3 experiments
Text: as §1

[5] = test system: CREB/ATF1; assay: Immunoblot analysis of CREB/ATF1 phosphorylation in ASM cells; type: cell-based, human; conditions: PGE2 100 nM
Text: as §1

[6] = test system: ERK1/2; assay: Immunoblot analysis of ERK1/2 phosphorylation in ASM cells; type: cell-based, human; conditions: for time of peak ERK1/2 phosphorylation / ERK1/2 phosphorylation in cells treated with the agent: isoproterenol or salmeterol 10 μM; for ERK1/2 phosphorylation in cells treated with the agent: PGE2 or forskolin 100 nM
Text: as §1

[7] = test system: human ASM cells; assay: Assay of cAMP PDE activity in ASM cell lysates; type: cell-based; conditions: for effect of pretreatment on PGE2- and forskolin-induced increases in PDE activity: PGE2 or forskolin x 24 hr (100 μM in text, 100 nM in legends); for effect of pretreatment on salmeterol- and isoproterenol-induced increase in PDE activity: salmeterol or isoproterenol 10 μM x 24 hr
[8] = test system: human ASM cells; assay: Assay of cAMP accumulation in cultured human ASM cells; type: cell-based; conditions: for isoproterenol-induced cAMP accumulation after 24 hr exposure to the agent: PGE2 100 nM or salmeterol 10 μM x 24 hr, no rolipram
Text: Animals: Adult New Zealand White rabbits were used in this study, which was approved by the Biosafety and Animal Research Committee of the Joseph Stokes Research Institute at Children's Hospital of Philadelphia. The animals had no signs of respiratory disease for several weeks before the study, and their care and use were in accordance with the “Guide for the Care and Use of Laboratory Animals” prepared by the Institute of Laboratory Animal Resources, National Research Council. Culture and treatment of ASM cells: The human ASM cells were grown in SmBm media supplemented with 10% FBS (BioWhittaker) and maintained throughout in a humidified incubator containing 5% CO2 in air at 37° C. The experimental protocols involved growing the cells to ˜95% confluence in the above medium. […] Assay of cAMP accumulation: In initial studies, intracellular cAMP levels were determined in near confluent ASM cell cultures at varying times following treatment of ASM cells with varying concentrations of isoproterenol (0.1 to 100 μM). […]
Thereafter, in the continued presence of these treatments, cells were exposed for 5 min to isoproterenol (10 μM) at 37° C., and intracellular cAMP concentrations were determined per manufacturer's protocols using a direct cAMP Enzyme Immunoassay Kit (R&D Systems, Minneapolis, Minn.). In both cases, the cAMP measurements were expressed in units of picomoles/milligram protein.

[9] = forskolin 100 μM x 24 hr, data not shown

| Structure (SMILES) | effect of pretreatment on PGE2-induced increase in constrictor responsiveness to ACh [1] | effect of pretreatment on salmeterol-induced increase in constrictor responsiveness to ACh [1] | effect of the agent alone on constrictor responses to ACh [1] | effect of pretreatment on PGE2-induced impaired relaxation to isoproterenol [2] | effect of pretreatment on salmeterol-induced impaired relaxation to isoproterenol [2] | effect of pretreatment on PGE2- and forskolin-induced increases in PDE activity [7] | effect of pretreatment on salmeterol- and isoproterenol-induced increase in PDE activity [7] | constrictor responsiveness to ACh relative to vehicle-treated controls [1] | maximal relaxation (Rmax) response to isoproterenol [2] | relaxation responsiveness to isoproterenol relative to vehicle-treated controls [2] | isoproterenol-induced cAMP accumulation after 24 hr exposure to the agent ([8]; isoproterenol 1.0 μM, 5 min) | cAMP PDE (PDE4) activity relative to vehicle-treated control cells [3] | PDE activity, fold above control [3] | time of peak PDE4D5 mRNA induction ([4]; PGE2 100 nM) | peak PDE4D5 mRNA expression, fold above unstimulated cells ([4]; PGE2 100 nM) | phosphorylation of CREB and ATF1 in cells treated with the agent ([5]; isoproterenol 10 μM) | time of peak ERK1/2 phosphorylation ([6]; PGE2 100 nM) | ERK1/2 phosphorylation in cells treated with the agent [6] | also measured |
| --- | --- | --- | --- | --- | --- | --- | --- | --- | --- | --- | --- | --- | --- | --- | --- | --- | --- | --- | --- |
| O=S(=O)(NCCNC/C=C/c1ccc(Br)cc1)c1cccc2cnccc12 [H89] | abrogated | completely abrogated; also recorded: prevents | no significant effect; also recorded: did not exhibit any significant changes | abrogated | completely ablated; also recorded: prevents | abrogated; also recorded: ablated | prevented; also recorded: ablated |  |  |  |  |  |  |  |  |  |  |  | effect of the agent alone on relaxation responses to isoproterenol ([2]; vehicle-exposed control tissues): no significant effect; also recorded: did not exhibit any significant changes; effect of the agent alone on basal PDE activity ([3]; no cAMP-elevating agent): no significant change; also recorded: neither H89 nor U0126 alone had a significant effect; effect of pretreatment on PGE2-induced upregulated PDE4D5 mRNA expression ([4]; PGE2 100 nM, 6 hr): largely prevented; also recorded: ablated; effect of pretreatment on β2AR agonist (isoproterenol)-induced upregulated PDE4D5 mRNA expression ([4]; isoproterenol 10 μM, 6 hr): largely prevented; also recorded: ablated; effect on PGE2-induced phosphorylation of CREB/ATF1 ([5]; 30 min): abrogated; also recorded: ablated; effect on PGE2-induced phosphorylation of ERK1/2 ([6]; PGE2 100 nM, 30 min): abrogated; also recorded: ablated |
| CCCCC[C@H](O)/C=C/[C@H]1[C@H](O)CC(=O)[C@@H]1C/C=C\CCCC(=O)O [PGE2, prostaglandin (PG)E2] |  |  |  |  |  |  |  | significantly increased constrictor responses; also recorded: increased constrictor responsiveness | 31.4±5.4% | impaired relaxation responses; also recorded: impaired ASM relaxation | significantly reduced cAMP responses; also recorded: significantly attenuated | significantly increased; also recorded: significant increase | 3.74 fold | 6 h | 5.9 fold | transiently increased phosphorylation; also recorded: transiently upregulated expression | 30 min | increased expression of phosphorylated ERK1/2; also recorded: significantly increased | time of peak CREB/ATF1 phosphorylation ([5]; isoproterenol 10 μM): 30 min; increase in ERK1/2 phosphorylation, fold above control (vehicle-treated) cells ([6]; densitometric ratios, mean±SE, PGE2 30 min, isoproterenol 20 min): 3.76±0.64 fold |
| COc1ccc(C2CNC(=O)C2)cc1OC1CCCC1 (stereo not shown) [rolipram] | completely abrogated; also recorded: prevents | completely abrogated; also recorded: prevents | only modestly decreased constrictor responses; also recorded: did not exhibit any significant changes; also recorded: no significant effect | completely ablated; also recorded: prevents | completely ablated; also recorded: prevents | completely abrogated; also recorded: ablated | completely abrogated; also recorded: ablated |  |  |  |  |  |  |  |  |  |  |  | effect of pretreatment on forskolin-induced increase in constrictor responsiveness to ACh [1, 9]: completely abrogated; effect of pretreatment on forskolin-induced impaired relaxation to isoproterenol [2, 9]: completely abrogated; isoproterenol-induced cAMP response in PGE2-exposed cells pretreated with the agent ([8]; PGE2 100 nM x 24 hr, rolipram 10 μM): preserved; also recorded: unaltered; isoproterenol-induced cAMP accumulation in cells pretreated with the agent ([8]; rolipram 10 μM, isoproterenol 1.0 μM, 5 min): increased isoproterenol-induced cAMP accumulation; also recorded: slightly increased; isoproterenol-induced cAMP response in salmeterol-exposed cells co-treated with the agent ([8]; salmeterol 10 μM x 24 hr, rolipram 10 μM): largely preserved; also recorded: unaltered |
| OCc1cc(C(O)CNCCCCCCOCCCCc2ccccc2)ccc1O (stereo not shown) [salmeterol] |  |  |  |  |  |  |  | significantly increased constrictor responses | 33.39±5.1% | impaired relaxation responses | significantly reduced cAMP responses; also recorded: markedly attenuated | significantly increased | ~2 fold | 6 h | 7.3 fold | Qualitatively similar temporal changes | 20 min | increased phosphorylation of ERK1/2; also recorded: enhanced ERK1/2 phosphorylation |  |
